Measurements from US10385063B2, “Herbicidal compounds” (Syngenta Participations AG, priority 2015, dated 2019).

Tests used:
Assay in all cases: Post-emergence efficacy, glasshouse pot test
Assay type in all cases: in vivo
Settings in all cases: evaluated after 13 days
[1] = test system: Amaranthus retoflexus (AMARE)
Experimental: (§1) B1 Post-emergence Efficacy Seeds of a variety of test species are sown in standard soil in pots:— Solanum nigrum (SOLNI), Amaranthus retoflexus (AMARE), Setaria faberi (SETFA), Echinochloa crus-galli (ECHCG), Ipomoea hederacea (IPOHE), Lolium perenne (LOLPE). After 8 days cultivation (post-emergence) under controlled conditions in a glasshouse (at 24/16° C., day/night; 14 hours light; 65% humidity), the plants are sprayed with an aqueous spray solution derived from the formulation of the technical active ingredient in acetone/water (50:50) solution containing 0.5% Tween 20 (polyoxyethylene sorbitan monolaurate, CAS RN 9005-64-5). Compounds are applied at 1000 g/ha and 250 g/ha. The test plants are then grown in a glasshouse under controlled conditions in a glasshouse (at 24/16° C., day/night; 14 hours light; 65% humidity) and watered twice daily. After 13 days, the test is evaluated for the percentage damage caused to the plant. The biological activities are shown below in Table B1, on a five point scale (5=80-100%; 4=60-79%; 3=40-59%; 2=20-39%; 1=0-19%).

[2] = test system: Echinochloa crus-galli (ECHCG)
Experimental: as §1

[3] = test system: Ipomoea hederacea (IPOHE)
Experimental: as §1

Lolium perenne (LOLPE) = test system: Lolium perenne (LOLPE)
Experimental: as §1

Setaria faberi (SETFA) = test system: Setaria faberi (SETFA)
Experimental: as §1

Solanum nigrum (SOLNI) = test system: Solanum nigrum (SOLNI)
Experimental: as §1

Compound	percentage damage caused to the plant, AMARE (five point scale) ([1]; 250 g/Ha)	percentage damage caused to the plant, AMARE (five point scale) ([1]; 1000 g/Ha)	percentage damage caused to the plant, ECHCG (five point scale) ([2]; 250 g/Ha)	percentage damage caused to the plant, ECHCG (five point scale) ([2]; 1000 g/Ha)	percentage damage caused to the plant, IPOHE (five point scale) ([3]; 250 g/Ha)	percentage damage caused to the plant, IPOHE (five point scale) ([3]; 1000 g/Ha)	percentage damage caused to the plant, LOLPE (five point scale) (Lolium perenne (LOLPE); 250 g/Ha)	percentage damage caused to the plant, LOLPE (five point scale) (Lolium perenne (LOLPE); 1000 g/Ha)	percentage damage caused to the plant, SETFA (five point scale) (Setaria faberi (SETFA); 250 g/Ha)	percentage damage caused to the plant, SETFA (five point scale) (Setaria faberi (SETFA); 1000 g/Ha)	percentage damage caused to the plant, SOLNI (five point scale) (Solanum nigrum (SOLNI); 250 g/Ha)	percentage damage caused to the plant, SOLNI (five point scale) (Solanum nigrum (SOLNI); 1000 g/Ha)
CC1(C)C(=O)C(c2c(Cl)ccc(Cl)c2OCc2ccccc2)C(=O)c2nccnc21 (stereo not drawn) [Compound 1.01, 7-(2-benzyloxy-3,6-dichloro-phenyl)-8-hydroxy-5,5-dimethyl-quinoxalin-6-one]	5 (5=80-100%)	5 (5=80-100%)	5 (5=80-100%)	5 (5=80-100%)	5 (5=80-100%)	5 (5=80-100%)	5 (5=80-100%)	5 (5=80-100%)	5 (5=80-100%)	5 (5=80-100%)	5 (5=80-100%)	5 (5=80-100%)
CC1(C)C(=O)C(c2c(F)ccc(Cl)c2OCc2ccccc2)C(=O)c2nccnc21 (stereo not drawn) [Compound 1.02]	5 (5=80-100%)	5 (5=80-100%)	5 (5=80-100%)	5 (5=80-100%)	5 (5=80-100%)	5 (5=80-100%)	5 (5=80-100%)	5 (5=80-100%)	5 (5=80-100%)	5 (5=80-100%)	5 (5=80-100%)	5 (5=80-100%)
CC1(C)c2nccnc2C(=O)C(c2c(F)ccc(Cl)c2OCc2ccccc2)S1(=O)=O (stereo not drawn) [Compound 1.08, 7-(2-benzyloxy-3-chloro-6-fluoro-phenyl)-5,5-dimethyl-6,6-dioxo-thiopyrano[3,4-b]pyrazin-8-ol]	5 (5=80-100%)	5 (5=80-100%)	4 (4=60-79%)	5 (5=80-100%)	5 (5=80-100%)	5 (5=80-100%)	5 (5=80-100%)	5 (5=80-100%)	5 (5=80-100%)	5 (5=80-100%)	5 (5=80-100%)	5 (5=80-100%)
O=C1c2nccnc2CS(=O)(=O)C1c1c(Cl)ccc(Cl)c1OCc1ccccc1 (stereo not drawn) [Compound 1.13]	5 (5=80-100%)	5 (5=80-100%)	5 (5=80-100%)	5 (5=80-100%)	5 (5=80-100%)	5 (5=80-100%)	5 (5=80-100%)	5 (5=80-100%)	5 (5=80-100%)	5 (5=80-100%)	5 (5=80-100%)	5 (5=80-100%)
